These results are taken from ChEMBL document CHEMBL3132795, “Synthesis, functional and binding profile of (R)-apomorphine based homobivalent ligands targeting the dopamine D2 receptor” (Medchemcomm, 2013).

Experiment [1] concerns the target T1, D(2) dopamine receptor (Homo sapiens, UniProt P14416). Description: Displacement of [3H]spiperone from human recombinant dopamine D2L receptor expressed in CHOFlpIn cells after 3 hrs by liquid scintillation counting. It is filed as cell-based. (In a radioligand displacement assay an active substance lowers the binding of a labelled ligand.)
In experiment [2] the target is T1, D(2) dopamine receptor. Description: Agonist activity at human recombinant dopamine D2L receptor expressed in CHOFlpIn cells assessed as ERK1/2 phosphorylation by alphascreen assay. In kind it is cell-based. Background: Alpha assays give light when donor and acceptor beads are brought close together.

Structures are written as SMILES.

T1 sequence (P14416 whole entry): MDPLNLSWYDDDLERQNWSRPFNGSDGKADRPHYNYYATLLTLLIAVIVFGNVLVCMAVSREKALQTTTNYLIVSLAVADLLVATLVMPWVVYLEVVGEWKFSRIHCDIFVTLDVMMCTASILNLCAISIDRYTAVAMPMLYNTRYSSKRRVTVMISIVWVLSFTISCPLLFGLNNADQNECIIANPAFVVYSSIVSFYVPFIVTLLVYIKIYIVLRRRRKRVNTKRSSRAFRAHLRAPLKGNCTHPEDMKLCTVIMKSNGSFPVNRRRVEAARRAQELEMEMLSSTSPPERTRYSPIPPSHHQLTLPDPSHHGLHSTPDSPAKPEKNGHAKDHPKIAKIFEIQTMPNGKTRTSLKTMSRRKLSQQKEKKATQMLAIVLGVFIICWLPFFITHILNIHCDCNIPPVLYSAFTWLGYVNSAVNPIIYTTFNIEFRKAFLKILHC

As for `CN1CCc2cccc3c2[C@H]1Cc1ccc(OCCCNC(=O)CCCCCCCCCCCCCCCCC(=O)NCCCOc2ccc4c(c2O)-c2cccc5c2[C@@H](C4)N(C)CC5)c(O)c1-3`, at D(2) dopamine receptor [1], the IC50 worked out at 2680 nM. For the same compound, the EC50 at D(2) dopamine receptor [2] amounted to 385 nM.

Turning to `CC(=O)NCCCOc1ccc2c(c1O)-c1cccc3c1[C@@H](C2)N(C)CC3`, the EC50 on D(2) dopamine receptor [2] worked out at 132 nM.

Consider `CN1CCc2cccc3c2[C@H]1Cc1ccc(OCCCNC(=O)CCCCCCCCCCCCC(=O)NCCCOc2ccc4c(c2O)-c2cccc5c2[C@@H](C4)N(C)CC5)c(O)c1-3`, for which the EC50 on D(2) dopamine receptor [2] stood at 224 nM.

Turning to `CN1CCc2cccc3c2[C@H]1Cc1ccc(OCCCN)c(O)c1-3`, at D(2) dopamine receptor [2], the EC50 came out at 10 nM.

On to `CN1CCc2cccc3c2[C@H]1Cc1ccc(OCCCNC(=O)CCCCCCCCCCC(=O)NCCCOc2ccc4c(c2O)-c2cccc5c2[C@@H](C4)N(C)CC5)c(O)c1-3`, for which, on D(2) dopamine receptor [1], the IC50 is 183 nM. For the same compound, the half-maximal effective concentration (EC50) at D(2) dopamine receptor [2] came out at 110 nM.

Turning to `CN1CCc2cccc3c2[C@H]1Cc1ccc(OCCCNC(=O)CCCCCCCCC(=O)NCCCOc2ccc4c(c2O)-c2cccc5c2[C@@H](C4)N(C)CC5)c(O)c1-3`, at D(2) dopamine receptor [1], the IC50 came out at 1350 nM. In addition, the EC50 at D(2) dopamine receptor [2] amounted to 79 nM.

Regarding `CN1CCc2cccc3c2[C@H]1Cc1ccc(OCCCNC(=O)CCCCCNC(=O)OC(C)(C)C)c(O)c1-3`, the IC50 at D(2) dopamine receptor [1] is 6540 nM. Besides, the EC50 at D(2) dopamine receptor [2] is 266 nM.

As for `CN1CCc2cccc3c2[C@H]1Cc1ccc(OCCCNC(=O)CCCCC(=O)NCCCOc2ccc4c(c2O)-c2cccc5c2[C@@H](C4)N(C)CC5)c(O)c1-3`, the IC50 on D(2) dopamine receptor [1] is 5320 nM. In addition, the EC50 on D(2) dopamine receptor [2] is 149 nM.

With `CN1CCc2cccc3c2[C@H]1Cc1ccc(OCCCNC(=O)CCC(=O)NCCCOc2ccc4c(c2O)-c2cccc5c2[C@@H](C4)N(C)CC5)c(O)c1-3`, the IC50 at D(2) dopamine receptor [1] is 4360 nM. The EC50 on D(2) dopamine receptor [2] was 396 nM.

Turning to `CN1CCc2cccc3c2[C@H]1Cc1ccc(OCCCNC(=O)CCCCCCC(=O)NCCCOc2ccc4c(c2O)-c2cccc5c2[C@@H](C4)N(C)CC5)c(O)c1-3`, at D(2) dopamine receptor [1], the IC50 came out at 3600 nM. In addition, the EC50 on D(2) dopamine receptor [2] was found to be 419 nM.

Consider `CN1CCc2cccc3c2[C@H]1Cc1ccc(OCCCNC(=O)CCCCCCCCCCCCCCCCCCC(=O)NCCCOc2ccc4c(c2O)-c2cccc5c2[C@@H](C4)N(C)CC5)c(O)c1-3`, for which the IC50 at D(2) dopamine receptor [1] worked out at 1550 nM. In addition, the EC50 on D(2) dopamine receptor [2] was determined as 248 nM.

For orientation: IC50 means the concentration that gives 50% inhibition. By EC50 is commonly meant the midpoint of the concentration-response curve.
